Activity calls are given as the source filed them. The rule behind the calls is not given here.
Assays:
[1] = biological target: Beta-lactamase CTX-M (Escherichia coli) (UniProt Q9EXV5); assay: Inhibition of recombinant Escherichia coli EO516 N-terminal His6-tagged CTX-M using FC5 as substrate at 200 uM preincubated at 10 to 300 mins followed by substrate addition
[2] = biological target: Beta-lactamase OXA-10 (Pseudomonas aeruginosa) (UniProt P14489); assay: Inhibition of recombinant Pseudomonas aeruginosa OXA-10 at 200 uM using FC5 as substrate
[3] = biological target: Beta-lactamase TEM (Bacteria) (UniProt P62593); assay: Inhibition of recombinant N-terminal His-tagged Escherichia coli TEM1 (24 to 286 residues) expressed in Escherichia coli BL21(DE3) at 200 uM using FC5 as substrate
[4] = biological target: Beta-lactamase (Escherichia coli K-12) (UniProt P00811); assay: Inhibition of recombinant Escherichia coli AmpC at 200 uM using FC5 as substrate preincubated at 10 to 300 mins followed by substrate addition
Beta-lactamase (Escherichia coli K-12), sequence (P00811 whole entry): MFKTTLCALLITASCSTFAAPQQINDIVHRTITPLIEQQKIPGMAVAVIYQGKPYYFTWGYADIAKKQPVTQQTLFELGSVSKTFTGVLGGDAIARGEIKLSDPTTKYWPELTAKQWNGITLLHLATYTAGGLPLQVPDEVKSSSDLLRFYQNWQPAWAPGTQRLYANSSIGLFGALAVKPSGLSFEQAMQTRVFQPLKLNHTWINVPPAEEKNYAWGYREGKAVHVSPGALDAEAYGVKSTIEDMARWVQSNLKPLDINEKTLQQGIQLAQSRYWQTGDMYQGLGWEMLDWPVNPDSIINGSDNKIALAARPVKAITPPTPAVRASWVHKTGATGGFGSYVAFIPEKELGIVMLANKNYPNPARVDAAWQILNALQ

Beta-lactamase TEM (Bacteria), sequence (P62593 whole entry, the tested form may be a part): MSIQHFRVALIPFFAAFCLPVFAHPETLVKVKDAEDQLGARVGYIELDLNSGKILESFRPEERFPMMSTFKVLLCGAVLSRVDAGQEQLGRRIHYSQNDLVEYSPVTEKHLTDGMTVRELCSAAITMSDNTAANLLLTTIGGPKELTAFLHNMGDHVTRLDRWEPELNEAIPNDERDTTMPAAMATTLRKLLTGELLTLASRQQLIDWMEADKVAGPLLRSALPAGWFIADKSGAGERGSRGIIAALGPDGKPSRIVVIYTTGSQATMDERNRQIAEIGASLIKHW
Beta-lactamase OXA-10 (Pseudomonas aeruginosa), sequence (P14489 whole entry, the tested form may be a part): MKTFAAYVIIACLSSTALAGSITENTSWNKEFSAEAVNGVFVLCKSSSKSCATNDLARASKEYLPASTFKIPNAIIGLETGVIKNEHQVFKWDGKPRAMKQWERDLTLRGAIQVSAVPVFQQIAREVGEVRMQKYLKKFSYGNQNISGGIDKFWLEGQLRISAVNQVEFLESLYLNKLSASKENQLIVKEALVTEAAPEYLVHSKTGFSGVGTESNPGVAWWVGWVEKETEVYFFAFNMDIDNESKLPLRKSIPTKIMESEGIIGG

Row | Structure (SMILES) | inhibition [1] | inhibition [2] | inhibition [3] | inhibition [4]
1 | O=C(O)CN1C(=O)/C(=C/c2c(F)cccc2F)SC1=S | inactive | inactive | inactive | inactive
2 | Cc1ccc(/C=C2\SC(=S)N(CC(=O)NN3CCN(C)CC3)C2=O)cc1 | inactive | inactive | inactive | inactive
3 | O=C(O)/C(S)=C/c1c(Cl)ccc(Cl)c1Cl | inactive | inactive | inactive | inactive
4 | CN1CCN(NC(=O)CN2C(=O)/C(=C/c3c(Cl)ccc(Cl)c3Cl)SC2=S)CC1 | inactive | inactive | inactive | inactive
5 | O=C(O)CN1C(=O)/C(=C/c2c(F)ccc(F)c2F)SC1=S | inactive | inactive | inactive | inactive
6 | CN1CCN(NC(=O)CN2C(=O)/C(=C/c3ccc(F)cc3)SC2=S)CC1 | inactive | inactive | inactive | inactive
7 | O=C(O)CN1C(=O)/C(=C/c2cc(Cl)ccc2Cl)SC1=S | inactive | inactive | inactive | inactive
8 | O=C(O)CN1C(=O)/C(=C/c2ccc(F)cc2)SC1=S | inactive | inactive | inactive | inactive
9 | COc1ccc(/C=C2\SC(=S)N(CC(=O)NN3CCN(C)CC3)C2=O)cc1 | inactive | inactive | inactive | inactive
10 | Cc1cccc(C)c1/C=C1\SC(=S)N(CC(=O)NN2CCN(C)CC2)C1=O | inactive | inactive | inactive | inactive
11 | CN1CCN(NC(=O)CN2C(=O)/C(=C/c3c(F)cccc3Cl)SC2=S)CC1 | inactive | inactive | inactive | inactive
12 | CN1CCN(NC(=O)CN2C(=O)/C(=C/c3cc(Cl)ccc3Cl)SC2=S)CC1 | inactive | inactive | inactive | inactive
13 | O=C(O)CN1C(=O)/C(=C/c2cccc(Cl)c2Cl)SC1=S | inactive | inactive | inactive | inactive
14 | O=C(O)CN1C(=O)/C(=C/c2ccccc2)SC1=S | inactive | inactive | inactive | inactive
15 | O=C(O)CN1C(=O)/C(=C/c2c(Cl)cccc2Cl)SC1=S | inactive | inactive | inactive | inactive
16 | CN1CCN(NC(=O)CN2C(=O)/C(=C/c3ccccc3I)SC2=S)CC1 | inactive | inactive | inactive | inactive
17 | COc1ccc(/C=C2\SC(=S)N(CC(=O)O)C2=O)cc1 | inactive | inactive | inactive | inactive

Row | Structure (SMILES) | inhibition [1] | inhibition [2] | inhibition [3] | inhibition [4]
18 | Cc1cccc(C)c1/C=C1\SC(=S)N(CC(=O)O)C1=O | inactive | inactive | inactive | inactive
19 | O=C(O)CN1C(=O)/C(=C/c2ccccc2I)SC1=S | inactive | inactive | inactive | inactive
20 | O=C(O)CN1C(=O)/C(=C/c2ccccc2Br)SC1=S | inactive | inactive | inactive | inactive
21 | CN1CCN(NC(=O)CN2C(=O)/C(=C/c3c(Cl)cccc3Cl)SC2=S)CC1 | inactive | inactive | inactive | inactive
22 | O=C(O)CN1C(=O)/C(=C/c2ccc(Br)cc2)SC1=S | inactive | inactive | inactive | inactive
23 | O=C(O)CN1C(=O)/C(=C/c2c(F)cccc2Cl)SC1=S | inactive | inactive | inactive | inactive
24 | CN1CCN(NC(=O)CN2C(=O)/C(=C/c3c(F)cccc3F)SC2=S)CC1 | inactive | inactive | inactive | inactive
25 | Cc1ccc(/C=C2\SC(=S)N(CC(=O)O)C2=O)cc1 | inactive | inactive | inactive | inactive
26 | CN1CCN(NC(=O)CN2C(=O)/C(=C/c3ccccc3Br)SC2=S)CC1 | inactive | inactive | inactive | inactive
27 | CN1CCN(NC(=O)CN2C(=O)/C(=C/c3ccccc3Cl)SC2=S)CC1 | inactive | inactive | inactive | inactive
28 | CN1CCN(NC(=O)CN2C(=O)/C(=C/c3ccccc3)SC2=S)CC1 | inactive | inactive | inactive | inactive
29 | CN1CCN(NC(=O)CN2C(=O)/C(=C/c3ccccc3F)SC2=S)CC1 | inactive | inactive | inactive | inactive
30 | CN1CCN(NC(=O)CN2C(=O)/C(=C/c3c(F)ccc(F)c3F)SC2=S)CC1 | inactive | inactive | inactive | inactive
31 | O=C(O)CN1C(=O)/C(=C/c2csc3ccccc23)SC1=S | inactive | inactive | inactive | inactive
32 | CN1CCN(NC(=O)CN2C(=O)/C(=C/c3cccc(Cl)c3Cl)SC2=S)CC1 | inactive | inactive | inactive | inactive
33 | CN1CCN(NC(=O)CN2C(=O)/C(=C/c3csc4ccccc34)SC2=S)CC1 | inactive | inactive | inactive | inactive

More lines, now with the values ahead:

Row | inhibition [1] | inhibition [2] | inhibition [3] | inhibition [4] | Structure (SMILES)
34 | inactive | inactive | inactive | inactive | O=C(O)/C(S)=C/c1cc(Cl)ccc1Cl
35 | inactive | inactive | inactive | inactive | O=C(O)/C(S)=C/c1ccccc1F
36 | inactive | inactive | inactive | inactive | COc1ccc(/C=C(\S)C(=O)O)cc1
37 | inactive | inactive | inactive | inactive | O=C(O)/C(S)=C/c1c(F)cccc1Cl
38 | inactive | inactive | inactive | inactive | O=C(O)/C(S)=C/c1csc2ccccc12
39 | inactive | inactive | inactive | inactive | O=C(O)/C(S)=C/c1c(F)cccc1F
40 | inactive | inactive | inactive | inactive | O=C(O)/C(S)=C/c1ccc(F)cc1
41 | inactive | inactive | inactive | inactive | O=C(O)/C(S)=C/c1ccccc1Br
42 | inactive | inactive | inactive | inactive | O=C(O)/C(S)=C/c1ccccc1Cc1ccc2ccccc2c1
43 | inactive | inactive | inactive | inactive | Cc1cccc(C)c1/C=C(\S)C(=O)O
44 | inactive | inactive | inactive | inactive | O=C(O)/C(S)=C/c1c(Cl)cccc1Cl
45 | inactive | inactive | inactive | inactive | O=C(O)/C(S)=C/c1ccccc1I
46 | inactive | inactive | inactive | inactive | Cc1ccc(/C=C(\S)C(=O)O)cc1
47 | inactive | inactive | inactive | inactive | O=C(O)CN1C(=O)/C(=C/c2ccccc2F)SC1=S
48 | inactive | inactive | inactive | inactive | O=C(O)/C(S)=C/c1ccccc1Cl
49 | inactive | inactive | inactive | inactive | O=C(O)/C(S)=C/c1ccccc1
50 | inactive | inactive | inactive | inactive | O=C(O)CN1C(=O)/C(=C/c2ccccc2Cl)SC1=S
51 | inactive | inactive | inactive | inactive | O=C(O)/C(S)=C/c1cccc(Cl)c1Cl

Reference: ChEMBL document CHEMBL4118127, “Structure activity relationship studies on rhodanines and derived enethiol inhibitors of metallo-β-lactamases” (Bioorg Med Chem, 2018)
